From patent US9139532B2, “Pyrazolyl guanidine F1F0-atpase inhibitors and therapeutic uses thereof” (Lycera Corporation, priority 2010, dated 2015)
Read-outs that look alike come from different tables or passages of the source.

How the values were obtained:
Ramos cells = assay: Cytotoxicity in Ramos cells; assay type: cell-based; conditions: cytotoxicity in Ramos cells, read-out: Ramos Cell EC50
F1F0-ATPase = target: T1, F1F0-ATPase (Bos taurus, UniProt P13621); assay: Inhibition of F1F0-ATPase activity in synthesizing ATP; assay type: biochemical; conditions: inhibition of ATP synthesis by F1F0-ATPase; read-out: ATP Syn IC50
T1 construct: from tissue

| SMILES | EC50 (Ramos cells; Homo sapiens) | IC50 (F1F0-ATPase) | EC50 (Ramos cells) |
| --- | --- | --- | --- |
| CC(C)(C)N/C(=N/C(=O)c1ccc(C(F)F)cc1)Nc1cc(C(F)(F)F)[nH]n1 [Compound A-64] | < 10 µM | < 10 µM | – |
| CC(C)(C)c1cc(NC(=NC(=O)c2ccc(Cl)c(F)c2)Nc2cc(-c3cc(F)cc(F)c3)n[nH]2)no1 [Compound A-345] | > 10 µM | > 10 µM | – |
| O=C(/N=C(\Nc1cc(C(F)(F)F)[nH]n1)NC1(CO)CCCC1)c1ccc(F)cc1 [Compound A-415] | – | < 10 µM | > 10 µM |
| O=C(/N=C(/Nc1cc(C(F)(F)F)n[nH]1)NC1CCOC1)c1ccc(F)c(F)c1 (centres unmarked) [Compound A-103] | < 10 µM | < 10 µM | – |
| O=C(N=C(Nc1cc(F)cc(Cl)c1)Nc1cc(-c2ccc(Cl)cc2)n[nH]1)c1ccc(Cl)c(F)c1 [Compound A-149] | < 10 µM | < 10 µM | – |
| CC(C)(C)N/C(=N/C(=O)c1cccc(C(F)(F)F)c1)Nc1cc(-c2ccc(Cl)cc2)n[nH]1 [Compound A-437] | – | < 10 µM | < 10 µM |
| O=C(N=C(Nc1cc(-c2ccc(Cl)cc2)n[nH]1)NC1CCC1)c1ccc(F)c(F)c1 [Compound A-224] | > 10 µM | < 10 µM | – |
| O=C(/N=C(/NCc1ccc(Cl)cc1F)Nc1cc(C(F)(F)F)[nH]n1)c1ccc(C(F)(F)F)cc1 [Compound A-21] | < 10 µM | < 10 µM | – |
| O=C(/N=C(\Nc1cc(-c2ccc(F)cc2)[nH]n1)N1CCCC1)c1ccc(F)cc1 [Compound A-156] | – | > 10 µM | > 10 µM |
| CC(C)NC(=NC(=O)c1cccc(F)c1)Nc1cc(-c2cc(F)cc(F)c2)n[nH]1 [Compound A-370] | < 10 µM | < 10 µM | – |
| CC(C)CN/C(=N/C(=O)c1ccc(C(F)(F)F)cc1)Nc1cc(-c2ccc(Cl)cc2)n[nH]1 [Compound A-240] | – | < 10 µM | < 10 µM |
| O=C(/N=C(/NCc1ccc(Cl)c(F)c1)Nc1cc(C(F)(F)F)[nH]n1)c1ccc(Cl)cc1 [Compound A-32] | < 10 µM | < 10 µM | – |
| O=C(/N=C(/Nc1cc(F)cc(Cl)c1)Nc1cc(-c2ccccc2)n[nH]1)c1ccc(Cl)c(F)c1 [Compound A-482] | – | < 10 µM | < 10 µM |
| COCC(C)NC(=NC(=O)c1ccc(Cl)c(F)c1)Nc1cc(-c2ccc(F)cc2)n[nH]1 (centres unmarked) [Compound A-218] | – | < 10 µM | < 10 µM |
| CCC(C)(C)N/C(=N/C(=O)c1ccc(C(F)(F)F)cc1)Nc1cc(C(F)(F)F)n[nH]1 [Compound A-93] | < 10 µM | < 10 µM | – |
| CC(C)CN/C(=N/C(=O)c1cccc(C#N)c1)Nc1cc(-c2cc(F)cc(F)c2)n[nH]1 [Compound A-310] | – | < 10 µM | < 10 µM |
| CCC(C)N/C(=N/C(=O)c1ccc(Cl)c(F)c1)Nc1cc(C)n[nH]1 (centres unmarked) [Compound A-178] | < 10 µM | < 10 µM | – |
| O=C(/N=C(\Nc1cc(C(F)(F)F)n[nH]1)NC1CCC1)c1ccc(F)c(F)c1 [Compound A-99] | < 10 µM | < 10 µM | – |
| O=C(/N=C(\Nc1cc(C(F)(F)F)[nH]n1)NC1CCOCC1)c1ccc(Cl)cc1 [Compound A-124] | > 10 µM | < 10 µM | – |
| CCOC(C)CN/C(=N/C(=O)c1ccc(F)c(F)c1)Nc1cc(-c2ccc(Cl)cc2)n[nH]1 (centres unmarked) [Compound A-214] | – | < 10 µM | < 10 µM |
| CC(C)(C)NC(=NC(=O)c1ccccc1)Nc1cc(C(F)(F)F)n[nH]1 [Compound A-544] | < 10 µM | < 10 µM | – |

| SMILES | EC50 (Ramos cells; Homo sapiens) | IC50 (F1F0-ATPase) | EC50 (Ramos cells) |
| --- | --- | --- | --- |
| O=C(/N=C(\Nc1cc(-c2cc(F)cc(F)c2)n[nH]1)NC1CCC1)c1ccc(Cl)c(F)c1 [Compound A-347] | – | < 10 µM | < 10 µM |
| COc1ccc(-c2cc(N/C(=N\C(=O)c3ccc(C(F)(F)F)cc3)Nc3cc(F)cc(Cl)c3)[nH]n2)cc1 [Compound A-481] | – | < 10 µM | > 10 µM |
| Cc1ccc(-c2cc(N/C(=N\C(=O)c3ccc(F)c(F)c3)Nc3cc(F)cc(Cl)c3)[nH]n2)cc1 [Compound A-428] | – | < 10 µM | > 10 µM |
| N#Cc1cccc(C(=O)/N=C(\Nc2cc(-c3ccc(F)cc3)[nH]n2)NC2CCCC2)c1 [Compound A-520] | – | < 10 µM | < 10 µM |
| CCOCCCN/C(=N/C(=O)c1cccc(F)c1)Nc1cc(-c2ccc(F)cc2)n[nH]1 [Compound A-279] | – | < 10 µM | < 10 µM |
| Cc1cccc(C(=O)/N=C(/NCc2ccc(F)cc2Cl)Nc2cc(C(F)(F)F)[nH]n2)c1 [Compound A-551] | – | < 10 µM | < 10 µM |
| COc1ccc(-c2cc(N/C(=N\C(=O)c3ccc(C(F)(F)F)cc3)NC(C)(C)C)[nH]n2)cc1F [Compound A-575] | – | < 10 µM | < 10 µM |
| CCC(C)NC(=NC(=O)c1ccc(Cl)c(F)c1)Nc1cc(-c2cc(F)cc(F)c2)n[nH]1 (centres unmarked) [Compound A-362] | < 10 µM | < 10 µM | – |
| O=C(/N=C(/Nc1cc(F)cc(Cl)c1)Nc1cc(C(F)F)[nH]n1)c1ccc(C(F)(F)F)cc1 [Compound A-60] | < 10 µM | < 10 µM | – |
| O=C(N=C(Nc1cc(-c2ccc(F)cc2)n[nH]1)NC1CCC1)c1ccc(Cl)cc1 [Compound A-264] | < 10 µM | < 10 µM | – |
| COc1cccc(C(=O)/N=C(\Nc2cc(-c3ccc(F)cc3)[nH]n2)NC(C)C)c1 [Compound A-524] | – | < 10 µM | < 10 µM |
| O=C(/N=C(\Nc1cc(-c2ccc(F)cc2)n[nH]1)NC1CCC1)c1ccc(Cl)c(F)c1 [Compound A-222] | – | < 10 µM | < 10 µM |
| CCC(C)N/C(=N/C(=O)c1cccc(OC)c1)Nc1cc(-c2ccc(Cl)cc2)n[nH]1 (centres unmarked) [Compound A-170] | < 10 µM | < 10 µM | – |
| CC(C)(C)N/C(=N/C(=O)c1ccc(C(F)(F)F)cc1)Nc1cc(-c2ccc(Cl)cc2)[nH]n1 [Compound A-138] | – | < 10 µM | < 10 µM |
| O=C(N=C(Nc1cc(-c2ccc(F)cc2)n[nH]1)NC1CCOCC1)c1ccc(C(F)(F)F)cc1 [Compound A-465] | > 10 µM | > 10 µM | – |
| CC(C)CN/C(=N/C(=O)c1ccc(F)c(F)c1)Nc1cc(-c2ccc(F)cc2)n[nH]1 [Compound A-261] | – | < 10 µM | < 10 µM |
| O=C(/N=C(/Nc1cc(F)cc(Cl)c1)Nc1cc(C(F)F)[nH]n1)c1ccc(F)c(F)c1 [Compound A-52] | < 10 µM | < 10 µM | – |
| CC(C)N/C(=N/C(=O)c1ccc(Cl)c(F)c1)Nc1cc(-c2cc(F)cc(F)c2)n[nH]1 [Compound A-359] | – | < 10 µM | < 10 µM |
| CCC(C)(C)N/C(=N/C(=O)c1ccc(Cl)c(F)c1)Nc1cc(C(F)(F)F)n[nH]1 [Compound A-116] | < 10 µM | < 10 µM | – |
| O=C(/N=C(/Nc1cc(C(F)(F)F)n[nH]1)NC1CCCC1)c1ccc(F)c(F)c1 [Compound A-100] | < 10 µM | < 10 µM | – |
| COCC(C)(C)NC(=NC(=O)c1ccc(F)cc1)Nc1cc(-c2ccc(F)cc2)n[nH]1 [Compound A-505] | < 10 µM | < 10 µM | – |

| SMILES | EC50 (Ramos cells; Homo sapiens) | IC50 (F1F0-ATPase) | EC50 (Ramos cells) |
| --- | --- | --- | --- |
| COC[C@H](C)N/C(=N/C(=O)c1ccc(OC)cc1)Nc1cc(C(F)(F)F)[nH]n1 [Compound A-536] | – | < 10 µM | < 10 µM |
| COCC(C)NC(=NC(=O)c1ccc(F)c(F)c1)Nc1cc(-c2cc(F)cc(F)c2)n[nH]1 (centres unmarked) [Compound A-363] | < 10 µM | < 10 µM | – |
| O=C(/N=C(\Nc1cc(-c2ccccc2)[nH]n1)NC1CCOCC1)c1ccc(Cl)c(F)c1 [Compound A-140] | – | > 10 µM | > 10 µM |
| CC(C)(C)N/C(=N/C(=O)c1cccc(C#N)c1)Nc1cc(C(F)(F)F)[nH]n1 [Compound A-73] | < 10 µM | < 10 µM | – |
| CCOCCCN/C(=N/C(=O)c1ccc(F)c(F)c1)Nc1cc(-c2ccc(C)c(F)c2)n[nH]1 [Compound A-281] | – | < 10 µM | < 10 µM |
| CCC(C)CN/C(=N/C(=O)c1ccc(C(F)(F)F)cc1)Nc1cc(-c2ccc(C)c(F)c2)n[nH]1 (centres unmarked) [Compound A-330] | – | > 10 µM | > 10 µM |
| O=C(/N=C(/NCc1ccc(F)c(Cl)c1)Nc1cc(C(F)(F)F)[nH]n1)c1ccc(F)c(F)c1 [Compound A-25] | < 10 µM | < 10 µM | – |
| COC[C@H](C)N/C(=N/C(=O)c1ccc(O)cc1)Nc1cc(-c2ccc(F)cc2)n[nH]1 [Compound A-492] | – | < 10 µM | < 10 µM |
| CCOCC(C)NC(=NC(=O)c1ccc(F)c(F)c1)Nc1cc(-c2ccc(Cl)cc2)n[nH]1 (centres unmarked) [Compound A-258] | – | < 10 µM | < 10 µM |
| O=C(/N=C(/NCc1ccc(Cl)cc1F)Nc1cc(C(F)(F)F)[nH]n1)c1ccc(Cl)cc1 [Compound A-33] | < 10 µM | < 10 µM | – |
| CC(C)NC(=NC(=O)c1ccc(F)cc1)Nc1cc(-c2ccc(Cl)cc2)n[nH]1 [Compound A-255] | < 10 µM | < 10 µM | – |
| CC(C)NC(=NC(=O)c1cccc(C#N)c1)Nc1cc(-c2ccc(Cl)cc2)n[nH]1 [Compound A-305] | < 10 µM | < 10 µM | – |
| CC(C)(C)N/C(=N/C(=O)c1ccc(C(F)(F)F)cc1)Nc1cc(-c2ccc(F)cc2)[nH]n1 [Compound A-50] | < 10 µM | < 10 µM | – |
| CCC(C)(C)N/C(=N/C(=O)c1ccc(F)c(F)c1)Nc1cc(C(F)(F)F)n[nH]1 [Compound A-101] | < 10 µM | < 10 µM | – |
| Cc1ccc(-c2cc(N/C(=N\C(=O)c3ccc(C(F)(F)F)cc3)NC3CC3)[nH]n2)cc1F [Compound A-195] | – | < 10 µM | < 10 µM |
| CC(C)(C)CN/C(=N/C(=O)c1ccc(Cl)cc1)Nc1cc(C(F)(F)F)n[nH]1 [Compound A-42] | < 10 µM | < 10 µM | – |
| Cc1ccc(C(=O)/N=C(\Nc2cc(C(F)(F)F)[nH]n2)NC2CCCC2)cc1 [Compound A-547] | – | < 10 µM | < 10 µM |
| Cc1ccc(-c2cc(N/C(=N\C(=O)c3ccc(C(F)(F)F)cc3)NC3CCC3)[nH]n2)cc1F [Compound A-329] | – | < 10 µM | < 10 µM |
| O=C(/N=C(\Nc1cc(C(F)(F)F)n[nH]1)NC1CCCOC1)c1ccc(Cl)c(F)c1 (centres unmarked) [Compound A-119] | < 10 µM | < 10 µM | – |
